# Results reported in ChEMBL document CHEMBL3988442, “University of Dundee, Small-Polar-MMV Screening Library” (2021).
# Columns and labels:
# [1] = microbe, parasite or virus in culture; settings: Mycobacterium tuberculosis, 96 h, read-out: pIC50 (converted)
# [2] = microbe, parasite or virus in culture; settings: Mycobacterium tuberculosis, 72 h, read-out: pIC50 (converted)
Compound,IC50 [1],IC50 [2]
Cc1nonc1NC(=O)CCn1cc(Br)ccc1=O,> 50.1 µM,> 50.1 µM
Cc1cc(CN2CCc3nc(C(C)C)nc(O)c3CC2)c(C)s1,> 50.1 µM,> 50.1 µM
COc1cc(C)sc1C(=O)NCCNc1ccccc1,4.3 µM,5.82 µM
CNC(=O)NC(=O)CCN1CCN(S(C)(=O)=O)CC1,> 501 µM,245 µM
CC[C@@H](CO)NC(=O)NCC(C)c1ccsc1 (some centres undefined),495 µM,483 µM
CC1CCCN(CC(=O)Nc2ccccc2C(N)=O)C1 (centres undefined),> 501 µM,248 µM
CCCc1nc(CN2Cc3ncccc3C2=O)cs1,119 µM,120 µM
Fc1ccc(NCC2CCC3(CC2)OCCO3)nc1,205 µM,264 µM
COC(=O)NCCc1ccccc1OC,> 501 µM,98.5 µM
CCCc1nnc(NCc2ccc(C)cn2)o1,212 µM,138 µM
CSCc1cccc(CNC(=O)c2cc[nH]n2)c1,> 501 µM,308 µM
Cc1nc(CNCC2COCc3c(-c4ccoc4)nnn3C2)cs1 (centres undefined),> 50.1 µM,> 50.1 µM
CC(CNC(=O)c1ccon1)Oc1cccc(Br)c1 (centres undefined),32.6 µM,25.7 µM
NCCNS(=O)(=O)c1ccc(F)c(C(F)(F)F)c1,> 501 µM,476 µM
c1cnnc(N2CCCC2CNCc2nc3ccccc3o2)c1 (centres undefined),32.7 µM,29.6 µM
Fc1ccc(CSc2nnnn2CC2CCCO2)cc1 (centres undefined),80.8 µM,39 µM
Cc1nsc(C(=O)NCCc2ccc(Cl)cc2)n1,12.7 µM,19.4 µM
CC(C)N(CCNC(=O)c1[nH]nc2ccc(I)cc12)C(C)C,15.8 µM,17.9 µM
O=C1CCN(CCOc2cc(F)cc(Br)c2)CCN1,279 µM,198 µM
Cc1cnc(NC(=O)c2cccc(CN(C)Cc3ccno3)c2)s1,37.3 µM,36.1 µM
NCCc1nc(-c2cccc(Cl)c2)no1,190 µM,122 µM
Cc1cc2c(cc1S(=O)(=O)N1CCCC(N)C1)OCO2 (centres undefined),> 501 µM,261 µM
COc1ccc(C(C)CO)cc1 (centres undefined),> 501 µM,> 501 µM
CCN1CCN(C(C)CNC(=O)Cn2cnnn2)CC1 (centres undefined),> 501 µM,> 501 µM
COc1ccnc(NC(=O)NCc2cccs2)c1,119 µM,90.3 µM
COCCN(C)C(=O)Nc1cccc(Cl)c1,282 µM,> 501 µM

Compound,IC50 [1],IC50 [2]
OCCOCCNCc1ccc(-c2ccc(F)cc2)o1,127 µM,288 µM
NC(=O)C1CCN(Cc2ccc(S(=O)(=O)N3CCCC3)o2)CC1,> 50.1 µM,> 50.1 µM
OCCCNC(c1ccccc1)c1ccccn1 (centres undefined),> 501 µM,> 501 µM
Fc1ccc(Cn2ncc3c2CN(c2noc(C4CC4)n2)C3)cc1,26.5 µM,> 50.1 µM
Cc1ccccc1-c1[nH][nH]c(=O)c1CCN,> 501 µM,230 µM
COCC(=O)NC1CCc2ccccc21 (centres undefined),124 µM,114 µM
CC(C)CC(C(=O)N(C)Cc1ncnn1C)N1CCCCC1=O (centres undefined),> 50.1 µM,> 50.1 µM
COc1ccc(CC2CCN2)cc1 (centres undefined),250 µM,212 µM
O=C(CCN1CCCC1CO)NCc1ccccc1Cl (centres undefined),> 501 µM,460 µM
CN1CCN(C(=O)CC2Cc3ccccc3C2)CC1,43.7 µM,96 µM
CSCCC(=O)NC(C)c1ccc2c(c1)OCCCO2 (centres undefined),> 501 µM,> 501 µM
O=C(NCc1cccs1)c1cnccn1,80.5 µM,33.9 µM
CCC(C)C(=O)NCCNc1ccc(C(F)(F)F)cn1 (centres undefined),57.7 µM,51.5 µM
CSCCC(CO)NC(=O)c1occc1C(C)C (centres undefined),> 501 µM,258 µM
CCCOC(=O)C(C)NC(=O)c1cccs1 (centres undefined),287 µM,249 µM
O=C(CCn1cc(Br)cn1)NCc1cccs1,109 µM,102 µM
N#Cc1cccc(S(=O)(=O)N2CCCCC2CCN2CCCC2)c1 (centres undefined),8.72 µM,14.3 µM
CCC1CN(C(=O)c2ccc3ccccc3n2)CCO1 (centres undefined),> 501 µM,97.4 µM
N#CC1(NC(=O)COc2cc(Cl)cc(Cl)c2)CCSC1 (centres undefined),> 50.1 µM,> 50.1 µM
CNC(=O)c1ccc(Cl)c(S(=O)(=O)N2CCCCC2)c1,> 501 µM,> 501 µM
CN(C)CCC(=O)c1ccc(F)cc1,177 µM,92.2 µM
Cc1cc(C(=O)N2CCC(C(N)=O)C2)cc(Cl)c1Br (centres undefined),262 µM,180 µM
COc1cccc(OCC(=O)NCC2CCCO2)c1 (centres undefined),145 µM,194 µM
COc1ccc2c(c1)OCC(CNC(=O)CN(C)C)C2 (centres undefined),> 501 µM,> 501 µM
CCOC(=O)N1CCN(C(=O)Cc2cccs2)CC1,> 501 µM,371 µM
COc1ccc(C(=O)NCCCC2(C3OCCO3)CCOCC2)cc1,> 50.1 µM,> 50.1 µM

Compound,IC50 [1],IC50 [2]
CC(C)N(C)S(=O)(=O)NCCCN(C)c1ccccc1,216 µM,193 µM
Cc1c(C(=O)NC2=NCCS2)oc2ccccc12,247 µM,279 µM
OCCCN1CCC(=Cc2ccccc2)CC1,250 µM,277 µM
CCCc1nc(C(=O)NCCc2cccnc2)cs1,281 µM,277 µM
O=C(NCCSc1ccccn1)C1CCCCO1 (centres undefined),> 501 µM,476 µM
CC(C)c1cccc(S(=O)(=O)N(C)Cc2nnc[nH]2)c1,> 501 µM,> 501 µM
COc1cccc(N2CCC(CN)C2)c1 (centres undefined),290 µM,69.7 µM
O=C(NCc1cccc(Cl)c1)c1cnns1,159 µM,297 µM
COC(=O)CNC(=O)c1nc(Br)sc1C(C)C,> 50.1 µM,> 50.1 µM
c1ccc(CNc2cc(-n3cccn3)ncn2)cc1,> 501 µM,11.2 µM
CS(=O)(=O)N1CCc2[nH]cnc2C12CCN(C(=O)c1ccccc1)CC2,> 50.1 µM,> 50.1 µM
COc1ccccc1C(N)c1ccccn1 (centres undefined),453 µM,233 µM
Cc1ccc(S(=O)(=O)NC(CN)C2CC2)c(F)c1 (centres undefined),> 501 µM,> 501 µM
CCOC(=O)C(C)Nc1ccc2c(c1)CCCC(=O)N2 (centres undefined),> 501 µM,> 501 µM
Cn1cc(Br)cc1C(=O)NCCCNc1ncccn1,> 501 µM,292 µM
Cc1cc(S(=O)(=O)NC2CCS(=O)(=O)C2)c(C)s1 (centres undefined),310 µM,97.4 µM
O=S(=O)(CCN1CC[C@@H](O)C1)c1cccc(Br)c1,146 µM,112 µM
Cc1ncc(CN(C)CC(O)COCc2ccco2)s1 (centres undefined),> 501 µM,> 501 µM
Cc1ccc(-c2noc([C@@H]3Cc4nc[nH]c4CN3)n2)cc1,2.31 µM,1.94 µM
Cc1nnc(N2CC[C@@H](OCC3CC3)[C@@H](Cc3ccccc3)C2)s1,> 50.1 µM,38.3 µM
NCCS(=O)(=O)N1CCc2ccccc21,240 µM,149 µM
CC(C)CCOc1ccc(C(C)NC(=O)Cn2cccnc2=O)cc1 (centres undefined),13.2 µM,8.35 µM
CN(C)S(=O)(=O)NCCNc1cccc(Br)c1,208 µM,154 µM
Cc1cc(S(=O)(=O)N2CCCC2CN)sc1C (centres undefined),> 501 µM,141 µM
CN(C)S(=O)(=O)N1CCC(Oc2ccccc2Cl)CC1,232 µM,343 µM
